Reference: patent US20250129430A1, “HIGH ATP-AFFINITY PROTEIN AS THERAPEUTIC TARGET FOR INTRACTABLE CANCER MOLECULAR SUBTYPES AND INHIBITOR THEREOF” (VeraVerse Co., Ltd., priority 2021, published 2025)

Columns and labels:
Assay in all cases: Cell viability drug screen, 12-point dose-response AUC
Assay type in all cases: cell-based, human
AGS = AGS cells (non-SEM subtype); 72 hours
Protocol: (§1) An FDA-approved small-molecule pharmacological compound (#L1300) and an anticancer compound for research (#L2000) were purchased from Selecckchem and a 10 mM solution was prepared in DMSO. A total of 1,345 compounds were tested the cell viability of the seven EMT gastric cancer cell lines.
(§2) Cells cultured for cell-based drug assay were inoculated into a 96-well white optical plate (Corning) at 5×10^3 cells per well. After 24 hours after inoculation, a 2.5 MJT (primary screen) or a half-log 12-serial diluent (secondary screen) of the pharmacological compound contained in DMSO is added to the cells with a robot using a BioMek FXp liquid processor (Beckman) to add to the cells at 50 mM. The final drug concentration in the 5 ns range and the DMSO specification control (0.5%) were calculated. The cells were then further incubated at 37° C. in a 5% CO2 incubator for 72 hours prior to measuring cell viability using the extra-GLO assay kit (Promega). The luminescent properties were measured after 15 min incubation at room temperature using a plate stacker equipped with a plate stacker. The normalized viability for the DMSO-based control was measured to generate a cell line-specific 12-point dose-response curve for each pharmacological compound, and then the area under the curve (AUC) was calculated using a trapezoidal method. […] The results of the repeated experiments were averaged to generate AUC values for each cell line for each compound.

Hs746T = Hs746T cells (SEM subtype); 72 hours
Protocol: as §1, §2

KATO3 = KATO3 cells; 72 hours
Protocol: as §1, §2

MKN1 = MKN1 cells; 72 hours
Protocol: as §1, §2

MKN28 = MKN28 cells; 72 hours
Protocol: as §1, §2

MKN45 = MKN45 cells (non-SEM subtype); 72 hours
Protocol: as §1, §2

MKN74 = MKN74 cells; 72 hours
Protocol: as §1, §2

NCC19 = NCC19 cells; 72 hours
Protocol: as §1, §2

NCC20 = NCC20 cells; 72 hours
Protocol: as §1, §2

NCC24 = NCC24 cells; 72 hours
Protocol: as §1, §2

NCC59 = NCC59 cells; 72 hours
Protocol: as §1, §2

NCI_N87 = NCI_N87 cells; 72 hours
Protocol: as §1, §2

OCUM1 = OCUM1 cells; 72 hours
Protocol: as §1, §2

SK4 = SK4 cells (SEM subtype); 72 hours
Protocol: as §1, §2

SNU16 = SNU16 cells; 72 hours
Protocol: as §1, §2

SNU1750 = SNU1750 cells (SEM subtype); 72 hours
Protocol: as §1, §2

SNU1967 = SNU1967 cells; 72 hours
Protocol: as §1, §2

SNU1 = SNU1 cells; 72 hours
Protocol: as §1, §2

SNU216 = SNU216 cells (non-SEM subtype); 72 hours
Protocol: as §1, §2

SNU484 = SNU484 cells (SEM subtype); 72 hours
Protocol: as §1, §2

SNU601 = SNU601 cells; 72 hours
Protocol: as §1, §2

SNU620 = SNU620 cells; 72 hours
Protocol: as §1, §2

SNU638 = SNU638 cells; 72 hours
Protocol: as §1, §2

SNU668 = SNU668 cells (SEM subtype); 72 hours
Protocol: as §1, §2

SNU719 = SNU719 cells; 72 hours
Protocol: as §1, §2

YCC11 = YCC11 cells (SEM subtype); 72 hours
Protocol: as §1, §2

YCC2 = YCC2 cells; 72 hours
Protocol: as §1, §2

YCC3 = YCC3 cells; 72 hours
Protocol: as §1, §2

FU97 = tested on: FU97; set-up: Average Area Under the Viability Curve (AUC), AUC norm value: scale not given here; settings: FU97 cells; 72 hours
Protocol: Cells cultured for cell-based drug assay were inoculated into a 96-well white optical plate (Corning) at 5×10^3 cells per well. After 24 hours after inoculation, a 2.5 MJT (primary screen) or a half-log 12-serial diluent (secondary screen) of the pharmacological compound contained in DMSO is added to the cells with a robot using a BioMek FXp liquid processor (Beckman) to add to the cells at 50 mM. The final drug concentration in the 5 ns range and the DMSO specification control (0.5%) were calculated. The cells were then further incubated at 37° C. in a 5% CO2 incubator for 72 hours prior to measuring cell viability using the extra-GLO assay kit (Promega). The luminescent properties were measured after 15 min incubation at room temperature using a plate stacker equipped with a plate stacker. The normalized viability for the DMSO-based control was measured to generate a cell line-specific 12-point dose-response curve for each pharmacological compound, and then the area under the curve (AUC) was calculated using a trapezoidal method.

Structure (SMILES)	Average Area Under the Viability Curve (AUC), AUC norm value (AGS)	Average Area Under the Viability Curve (AUC), AUC norm value (Hs746T)	Average Area Under the Viability Curve (AUC), AUC norm value (KATO3)	Average Area Under the Viability Curve (AUC), AUC norm value (MKN1)	Average Area Under the Viability Curve (AUC), AUC norm value (MKN28)	Average Area Under the Viability Curve (AUC), AUC norm value (MKN45)	Average Area Under the Viability Curve (AUC), AUC norm value (MKN74)	Average Area Under the Viability Curve (AUC), AUC norm value (NCC19)	Average Area Under the Viability Curve (AUC), AUC norm value (NCC20)	Average Area Under the Viability Curve (AUC), AUC norm value (NCC24)	Average Area Under the Viability Curve (AUC), AUC norm value (NCC59)	Average Area Under the Viability Curve (AUC), AUC norm value (NCI_N87)	Average Area Under the Viability Curve (AUC), AUC norm value (OCUM1)	Average Area Under the Viability Curve (AUC), AUC norm value (SK4)	Average Area Under the Viability Curve (AUC), AUC norm value (SNU16)	Average Area Under the Viability Curve (AUC), AUC norm value (SNU1750)	Average Area Under the Viability Curve (AUC), AUC norm value (SNU1967)	Average Area Under the Viability Curve (AUC), AUC norm value (SNU1)	Average Area Under the Viability Curve (AUC), AUC norm value (SNU216)	Average Area Under the Viability Curve (AUC), AUC norm value (SNU484)	other results
O=C(/C=C/c1cccnc1)NCCCCC1CCN(C(=O)c2ccccc2)CC1 [APO866 (FK866), APO866]	0	−4.382	1.553	−5.502	−6.855	0.6191	−6.53	−4.01	2.35	−0.07585	0.7919	0.8343	0.949	0.7403	−4.562	−3.767	−3.653	0.9726	−5.897	−6.823	Average Area Under the Viability Curve (AUC), AUC norm value (SNU601): 4.976; Average Area Under the Viability Curve (AUC), AUC norm value (SNU620): 0.3488; Average Area Under the Viability Curve (AUC), AUC norm value (SNU638): 0.6032; Average Area Under the Viability Curve (AUC), AUC norm value (SNU668): −3.304; Average Area Under the Viability Curve (AUC), AUC norm value (SNU719): 1.275; Average Area Under the Viability Curve (AUC), AUC norm value (YCC11): −2.215; Average Area Under the Viability Curve (AUC), AUC norm value (YCC2): 1.331; Average Area Under the Viability Curve (AUC), AUC norm value (YCC3): 1.423; Average Area Under the Viability Curve (AUC), AUC norm value (FU97): −3.149
O=C(Nc1c[nH]nc1-c1nc2ccc(CN3CCOCC3)cc2[nH]1)NC1CC1 [AT9283]	−0.9303	0.9084	0.5115	−2.315	−1.903	−0.1996	0.4728	2.247	−2.941	−0.6909	0.5882	0.1418	0	−0.4441	−3.809	−1.7502	−0.1244	−3.743	0.5323	−1.872	Average Area Under the Viability Curve (AUC), AUC norm value (SNU601): 1.648; Average Area Under the Viability Curve (AUC), AUC norm value (SNU620): −4.059; Average Area Under the Viability Curve (AUC), AUC norm value (SNU638): −0.01142; Average Area Under the Viability Curve (AUC), AUC norm value (SNU668): 0.6968; Average Area Under the Viability Curve (AUC), AUC norm value (SNU719): 3.019; Average Area Under the Viability Curve (AUC), AUC norm value (YCC11): −1.467; Average Area Under the Viability Curve (AUC), AUC norm value (YCC2): 0.07527; Average Area Under the Viability Curve (AUC), AUC norm value (YCC3): 0.6619
Cc1ccc(C(=O)N(CCCN)[C@@H](c2nc3cc(Cl)ccc3c(=O)n2Cc2ccccc2)C(C)C)cc1 [Ispinesib (SB-715992), Ispinesib]	−2.131	1.046	2.999	−1.178	−1.956	1.833	0	1.111	−0.9939	−0.8348	2.6543	−0.0052	1.297	−0.8267	−1.935	0.2265	1.562	−1.68	1.801	−0.9509	Average Area Under the Viability Curve (AUC), AUC norm value (SNU601): −1.371; Average Area Under the Viability Curve (AUC), AUC norm value (SNU620): −1.255; Average Area Under the Viability Curve (AUC), AUC norm value (SNU638): −0.203; Average Area Under the Viability Curve (AUC), AUC norm value (SNU668): 0.1001; Average Area Under the Viability Curve (AUC), AUC norm value (SNU719): 2.542; Average Area Under the Viability Curve (AUC), AUC norm value (YCC11): −1.381; Average Area Under the Viability Curve (AUC), AUC norm value (YCC2): 0.7987; Average Area Under the Viability Curve (AUC), AUC norm value (YCC3): 2.007
